{"source": "paper PMC7153024", "about": "“New 8-Nitroquinolinone Derivative Displaying Submicromolar in Vitro Activities against Both Trypanosoma brucei and cruzi” (ACS Medicinal Chemistry Letters, 2020)", "key": {"[1]": {"test_system": "T. brucei brucei trypomastigotes", "assay": "Antitrypanosomal activity on T. brucei brucei trypomastigotes (AnTat 1.9, Alamar Blue)", "type": "cell-based, Trypanosoma brucei brucei", "conditions": "HepG2 CC50 versus T. b. brucei EC50"}, "[2]": {"assay": "Redox potentials by cyclic voltammetry in DMSO", "conditions": "13 vs hit 2; 9, hit 1 and 2 vs pharmacophore; 10 vs 9; 5 vs 2"}, "[3]": {"assay": "PAMPA assay using a blood-brain barrier (BBB) model", "type": "in vitro ADME", "conditions": "tested concentration 100 µM, pH 7.4"}, "human albumin": {"test_system": "human albumin", "assay": "Human albumin binding assay", "type": "in vitro ADME", "description": "are kept at 4 °C for immediate analysis or placed at -80 °C in case of postponement of the analysis.\nControls (t0 and tfinal) in triplicate are prepared by incubation of the internal standard with microsomes denatured by acetonitrile. The LC-MS used for this study is a Waters® Acquity I-Class / Xevo TQD, equipped with a Waters® Acquity BEH C18 column, 50 x 2.1 mm, 1.7 μm. The mobile phases are (A) […]\nThe injection volume is 1 µL and […]\nthe flow rate is 600 µL/min.\n98% (B); […]; 2.6 < t < 4 min, 2% (B). Compound 8-bromo-6- […]\nchloro-3-nitro-2-(phenylsulfonylmethyl)imidazo[1,2-a]pyridine is used as internal standard. The quantification of each compound is obtained by converting the average of the ratios of the analyte/internal standard surfaces to the percentage of consumed product. The ratio of the control at t0 corresponds to 0% of product consumed. The calculation of the half-life (t1/2) of each compound in the […]\npresence of microsomes is done according to the equation: . Where k is the first-order t1=k […]\ndegradation constant (the slope of the logarithm of compound concentration versus incubation time).\nThe intrinsic clearance in vitro (Cl int expressed in μL/min/mg) is calculated according to the equation:\nClint= [microsomes]. […]"}}, "note": "Where “and” joins values, the source holds several entries; their conditions need not be identical. Equal values may be shown once.", "data": [{"smiles": "O=C(O)c1ccc(-c2cc3cc(Br)cc([N+](=O)[O-])c3[nH]c2=O)cc1", "note": "[Compound 13]", "values": [{"measurement": "Selectivity index regarding T. b. brucei", "setting": "[1]", "value": "> 200"}, {"measurement": "Shift of the E° value versus the comparator compound", "setting": "[2]", "value": "+0.16 V"}, {"measurement": "BBB PAMPA assay Pe", "setting": "[3]", "value": "1.27 ×10⁻⁶ cm/s and 1.27 ± 0.09 ×10⁻⁶ cm/s"}, {"measurement": "Albumin binding assay", "setting": "human albumin", "value": "> 99", "unit": "%"}]}]}
